In PubChem BioAssay (NCI) one finds GI50 and TGI data, which are given here for 10 molecules.

Among the test systems are COLO 205 colon; OVCAR-4 ovarian; RXF 393 renal; SN12C renal; HOP-92 NSCLC; UACC-62 melanoma; SK-MEL-5 melanoma; HCT-15 colon; SK-MEL-2 melanoma; CCRF-CEM leukemia.
Assay in all cases: inhibition of tumour cell growth, NCI panel, 48 h

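Assay format: 96-well plates, 48-hour exposure. GI50 = concentration required for 50% inhibition of growth. The concentration for full growth arrest is given as TGI.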

With `CN1N=Nc2c(C(F)(F)F)nn(-c3ccccc3)c2N(C)C1=O`, the GI50 in the assay with COLO 205 colon is greater than 47.9 µM; with OVCAR-4 ovarian it was greater than 100 µM; in the assay on SN12C renal, greater than 100 µM; in the assay on HOP-92 NSCLC, greater than 100 µM; in the assay on UACC-62 melanoma, greater than 100 µM; with SK-MEL-5 melanoma, greater than 100 µM. The GI50 in the assay with HCT-15 colon and with SK-MEL-2 melanoma was greater than 100 µM throughout. The TGI in the assay on COLO 205 colon is greater than 70.4 µM; in the assay on OVCAR-4 ovarian, greater than 100 µM; in the assay with RXF 393 renal, greater than 100 µM; in the assay with SN12C renal, greater than 100 µM; in the assay on HOP-92 NSCLC, greater than 100 µM; in the assay with UACC-62 melanoma, greater than 100 µM. Further, the TGI with SK-MEL-5 melanoma, in the assay on HCT-15 colon and in the assay on SK-MEL-2 melanoma was greater than 100 µM in each case.
On to `N#C/C(=C\c1cccnc1)c1nc2ccccc2o1`, for which the GI50 in the assay with COLO 205 colon is greater than 100 µM; with OVCAR-4 ovarian, greater than 100 µM; in the assay with RXF 393 renal it was greater than 100 µM; in the assay with SN12C renal, greater than 100 µM; in the assay with HOP-92 NSCLC, 40.8 µM; in the assay on UACC-62 melanoma, greater than 100 µM. In addition, the GI50 in the assay on SK-MEL-5 melanoma, with HCT-15 colon and with SK-MEL-2 melanoma was greater than 100 µM in each case. The TGI in the assay on COLO 205 colon, with OVCAR-4 ovarian, in the assay on RXF 393 renal, in the assay with SN12C renal, in the assay on HOP-92 NSCLC and with UACC-62 melanoma was greater than 100 µM throughout. In addition, the TGI in the assay on SK-MEL-5 melanoma, in the assay on HCT-15 colon and in the assay on SK-MEL-2 melanoma was greater than 100 µM each time.
For `COc1cc(C(=O)C/C(CCC(=O)Nc2ccc(Cl)cc2Cl)=N/Nc2nnc(C)n2N)ccc1O`, the TGI in the assay on COLO 205 colon, with RXF 393 renal, in the assay on SN12C renal, in the assay with HOP-92 NSCLC, in the assay on UACC-62 melanoma and with SK-MEL-5 melanoma was greater than 100 µM each time. Further, the TGI in the assay on HCT-15 colon, in the assay with CCRF-CEM leukemia and with SK-MEL-2 melanoma was greater than 100 µM throughout.
As for `N#CC1CCc2c(c(-c3cn[nH]c3C(F)(F)F)nc3c(F)cc4[nH]ncc4c23)C1` (stereo not drawn), the GI50 in the assay with COLO 205 colon was 4.23 µM; in the assay on RXF 393 renal, 2.39 µM; with SN12C renal, 4.22 µM; with HOP-92 NSCLC, 4.42 µM; with UACC-62 melanoma it was 3.43 µM; in the assay with SK-MEL-5 melanoma, 2.83 µM. Besides, the GI50 with HCT-15 colon was 53.1 µM; in the assay with CCRF-CEM leukemia, 4.06 µM; in the assay on SK-MEL-2 melanoma, 2.4 µM. Moreover, the TGI is 16.1 µM in the assay with COLO 205 colon; 7.3 µM in the assay with RXF 393 renal; 68.4 µM in the assay with SN12C renal; 26.5 µM with HOP-92 NSCLC; 11.5 µM in the assay on UACC-62 melanoma; 9.79 µM in the assay with SK-MEL-5 melanoma. In addition, the figures for the TGI with HCT-15 colon, in the assay with CCRF-CEM leukemia and in the assay on SK-MEL-2 melanoma were greater than 100 µM, greater than 100 µM and 6.78 µM, respectively.
In the case of `O=c1cccccc1NCCNc1cccccc1=O`, the TGI with COLO 205 colon is greater than 100 µM; with OVCAR-4 ovarian it was greater than 100 µM; in the assay on RXF 393 renal, greater than 100 µM; in the assay on SN12C renal it was 27.9 µM; with HOP-92 NSCLC, greater than 100 µM; with UACC-62 melanoma, greater than 100 µM. In addition, the TGI in the assay on HCT-15 colon, in the assay with CCRF-CEM leukemia and in the assay on SK-MEL-2 melanoma was greater than 100 µM in each case.
`O=C1NC(O)CCN1C1CC(O)C(CO)O1` (stereo not drawn): the TGI in the assay on COLO 205 colon, in the assay on RXF 393 renal, with SN12C renal, with HOP-92 NSCLC, in the assay with UACC-62 melanoma and with SK-MEL-5 melanoma was greater than 100 µM in each case. Besides, the TGI in the assay on HCT-15 colon, with CCRF-CEM leukemia and in the assay on SK-MEL-2 melanoma was greater than 100 µM in each case.
Consider `O=C(O)c1ccc2cccnc2c1O`, for which the GI50 in the assay on COLO 205 colon was 4.23 µM; in the assay with OVCAR-4 ovarian, 0.411 µM; with RXF 393 renal, 1.94 µM; with SN12C renal it was 0.797 µM; in the assay on HOP-92 NSCLC, 0.832 µM; in the assay with UACC-62 melanoma, 1.54 µM. The values for the GI50 in the assay on HCT-15 colon, with CCRF-CEM leukemia and in the assay with SK-MEL-2 melanoma were 0.994 µM, 0.989 µM and 1.95 µM, respectively. Also, the TGI was 10.1 µM in the assay with COLO 205 colon; greater than 100 µM with OVCAR-4 ovarian; 36.4 µM in the assay with RXF 393 renal; greater than 72.2 µM in the assay on SN12C renal; 2.74 µM with HOP-92 NSCLC; 9.64 µM with UACC-62 melanoma. Further, the TGI in the assay on HCT-15 colon was greater than 100 µM; in the assay with CCRF-CEM leukemia, greater than 60.8 µM; with SK-MEL-2 melanoma, 7.46 µM.
Take `COc1cc2c3c(c1OC)Oc1ccc(cc1)CC1c4c(cc(OC)c(OC)c4Oc4ccc(cc4)CC3N(C)CC2)CCN1C` (stereo not drawn): the TGI in the assay with COLO 205 colon is 26.4 µM; in the assay with OVCAR-4 ovarian, 36.3 µM; with RXF 393 renal, 40.3 µM; with SN12C renal it was 49.7 µM; in the assay with HOP-92 NSCLC, greater than 100 µM; with UACC-62 melanoma, 34.9 µM. Further, the TGI was determined as 31.7 µM in the assay with SK-MEL-5 melanoma, 55.1 µM with CCRF-CEM leukemia and 50.6 µM in the assay with SK-MEL-2 melanoma.
As for `Cc1cc(O)c2c(c1)C(=O)C(c1c(C)cc3c(c1O)C(=O)C1OC1C3=O)=CC2=O` (stereo not drawn), the TGI stood at 11.1 µM with OVCAR-4 ovarian; 3.11 µM in the assay on RXF 393 renal; 11.2 µM with SN12C renal; 2.11 µM in the assay with HOP-92 NSCLC; 4.77 µM in the assay with UACC-62 melanoma; 19.7 µM with SK-MEL-5 melanoma. For the same molecule, the results for the TGI in the assay on HCT-15 colon and with SK-MEL-2 melanoma were 3.05 µM and 24.6 µM, respectively.
On to `O=C(O)Cc1cc(=O)[nH]c2c1C(=O)CCC2`, for which the TGI with COLO 205 colon, with RXF 393 renal, in the assay on SN12C renal, in the assay with HOP-92 NSCLC, in the assay with SK-MEL-5 melanoma and in the assay on HCT-15 colon was greater than 100 µM throughout. For the same molecule, the TGI with CCRF-CEM leukemia and in the assay with SK-MEL-2 melanoma was greater than 100 µM throughout.
